Source: ChEMBL document CHEMBL1123244, “Synthesis and aldose reductase inhibitory activity of substituted 2-oxoquinoline-1-acetic acid derivatives” (J Med Chem, 1986)
Active and inactive are the calls of the source. No cut-off for these calls is given here.

Target: Aldo-keto reductase family 1 member B1 (Rattus norvegicus, UniProt P07943)
Test: Inhibition of crude aldose reductase of rat lens

Row | IC50 [µM] | Structure (SMILES)
1 | 470 | Cc1cc(=O)n(C(C)C(=O)O)c2ccccc12 (stereo unspecified)
2 | 1.5 | O=C(O)CN1C(=O)c2cccc3cccc(c23)C1=O [ALRESTATIN]
3 | 2.4 | O=C(O)Cn1c(=O)ccc2cc(O)ccc21
4 | 590 | COc1ccc2c(ccc(=O)n2C(C)C(=O)O)c1 (stereo unspecified)
5 | 33 | CC(C(=O)O)n1c(=O)ccc2cccc(O)c21 (stereo unspecified)
6 | 6 | Cc1cc(=O)n(CC(=O)O)c2ccccc12
7 | 3.3 | O=C(O)Cn1c(=O)ccc2cccc(O)c21
8 | 0.45 | Cc1cc(=O)n(CC(=O)O)c2ccc([N+](=O)[O-])cc12
9 | 0.91 | COc1ccc2c(ccc(=O)n2CC(=O)O)c1
10 | 110 | Cc1cc(=O)n(CCC(=O)O)c2ccccc12

Target: Aldo-keto reductase family 1 member B1 (Rattus norvegicus) (UniProt P07943)
Test: Compound was tested for inhibition of crude aldose reductase obtained from rat lens, at the concentration of 100 uM

Row | inhibition [%] | Structure (SMILES)
11 | 42 | Cc1cc(=O)n(C)c2ccccc12
12 | 24 | Cc1cc(=O)[nH]c2ccccc12
13 | 9.5 | CC(=O)Oc1cccc2ccc(O)nc12
14 | 25.8 | COc1ccc2nc(O)ccc2c1

Target: Aldo-keto reductase family 1 member B1 (Rattus norvegicus) (UniProt P07943)
Test: Compound was tested for inhibition of crude aldose reductase obtained from rat lens, at the concentration of 100 uM; Inactive

Row | inhibition | Structure (SMILES)
15 | inactive | CCOC(=O)Cn1c(=O)cc(C)c2ccccc21

Target: Aldo-keto reductase family 1 member B1 (Rattus norvegicus) (UniProt P07943)
Test: Compound was tested for 50% inhibition of crude aldose reductase obtained from rat lens

Row | inhibition [%] | Structure (SMILES)
16 | 33 | O=C(O)Cn1ccccc1=O
